Literature values in PMC9610285 (Pharmaceutics, 2022).

Test system: MAO-B
Set-up: method as in earlier work
Conditions: main metabolite of rasagiline; cited from earlier work

NC1CCc2ccccc21 (stereo not shown) [S1-1-aminoindane]
MAO-B inhibition: not a MAO-B inhibitor
